Experimental data reported in PMC3551614 (Journal of the American Chemical Society, 2012).
Numbered stars: 1 amine (or outer) side, 2 acyl side, 3 side chain; on linkers, the order of the positions; unused ones are H or OH. Bridge positions count the residues as written; N and C are the ends. Square brackets hold non-standard residues; d marks the D form. Peptide text beside a SMILES is read from it. * marks the point of attachment. 5FAM = O=C1OC2(c3ccc(O)cc3Oc3cc(O)ccc32)c2ccc(C(=O)*)cc21; X1 = O=C([C@H]1CNC[C@@H]1N[*:1])[*:2]; β3hE = N[C@@H](CCC(=O)O)CC(=O)O; β3hN = NC(=O)C[C@H](N)CC(=O)O; β3hL = CC(C)C[C@H](N)CC(=O)O; Nle = CCCC[C@H](N)C(=O)O

Molecular target: T1, VEGF (Homo sapiens, UniProt P15692)
T1 sequence (P15692 1-191 isoform P15692-4): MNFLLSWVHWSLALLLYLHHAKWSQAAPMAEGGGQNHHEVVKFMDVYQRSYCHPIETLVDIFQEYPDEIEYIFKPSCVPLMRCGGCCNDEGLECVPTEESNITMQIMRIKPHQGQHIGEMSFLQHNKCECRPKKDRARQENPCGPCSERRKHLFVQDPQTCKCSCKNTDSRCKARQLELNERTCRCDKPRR
Assay: direct FP binding of N-terminal fluorescein derivatives
Details: domain 2 of VEGFR1 as competitor

CCCC[C@@H]1NC(=O)[C@H](C(C)C)NC(=O)[C@H](Cc2c[nH]cn2)NC(=O)[C@H]([C@@H](C)CC)NC(=O)[C@H](CC(=O)O)NC(=O)[C@@H](NC(=O)C[C@H](CC(N)=O)NC(=O)[C@@H]2CCCN2C(=O)C[C@H](CCC(=O)O)NC(=O)[C@@H](NC(=O)c2ccc3c(c2)C(=O)OC32c3ccc(O)cc3Oc3cc(O)ccc32)C(C)C)CSSC[C@@H](C(=O)N[C@@H](Cc2ccccc2)C(=O)N[C@H]2CNC[C@@H]2C(=O)N[C@@H](CCCNC(=N)N)C(=O)N[C@H](CC(N)=O)CC(C)C)NC(=O)[C@H](CCC(=O)O)NC(=O)[C@H](Cc2c[nH]c3ccccc23)NC(=O)C[C@H](CCC(=O)O)NC(=O)[C@H](Cc2c[nH]c3ccccc23)NC1=O [Flu-3] (5FAM-V[β3hE]P[β3hN]CDIHV[Nle]W[β3hE]WECF[X1]R[β3hL]-NH2; disulfide 5-15; N-terminus and C-terminus assumed)
displacement from VEGF by domain 2 of VEGFR1: displaces
